# Laboratory results published in patent publication US20060030616A1, “Anhydride modified cantharidin analogues useful in the treatment of cancer” (priority 1998, published 2006).
# Read-outs that look alike come from different tables or passages of the source.
# Columns and labels:
# 143B cells = assay: MTT cytotoxicity assay, 72 h; assay type: cell-based, human; settings: p53 mt, read-out: IC50 (mean ± SE) after 72 h continuous exposure
# Procedure: (§1) Cells in a subconfluent phase are transferred to 96-well microtitre plates. L1210 cells are plated at a density of 1000 cells/well in 100 μl medium, while all other cell lines are plated at a density of 2000-25000 cells/well. The cells are left for 24 h prior to treatment to ensure exponential growth has been achieved, 24 h after plating (day 0), 100 μl of phosphatase inhibitor is added to each well, control wells received 100 μl of medium only. Drug exposure time is 72 h (day 3). The effect of phosphatase inhibition is tested in triplicate over a concentration range of […]−1×10^−8 M. Growth inhibitory effects are evaluated using the MTT assay and absorbance read at […]. The IC50 is the drug concentration at which cell growth is 50% inhibited based on the difference of optical density on day 0 and day 3 of drug exposure. Cytotoxicity is evaluated using a spectrophotometric assay which determines the percentage of cell growth following exposure of the cells to various concentrations of the phosphatase inhibitors for a period of 72 hours. The subsequent dose response curve is used to calculate IC50 values (the drug concentration at which cell growth is 50% inhibited).
# (§2) Anti-cancer screening of the protein phosphatase inhibitors is assessed using the MTT assay. This assay determines cell viability by the ability of mitochondrial dehydrogenase to produce formazan crystals from 3-(4,5-dimethylthiazol-2-yl)-2,5-diphenyltetrazolium bromide. The viable cell number/well is directly proportional to the production of formazan, which following solubilization, can be measured spectrophotometrically (540 nm). This technique is also used by the National Cancer Institute to screen for new anticancer agents.
# (§3) As described herein a number of cantharidin analogues have been synthesised and tested for their anticancer activity in nine cancer cell lines using the MTT assay after 72 h exposure. These new analogues are shown in FIG. 2 and have been designated MK-1 through to MK-9.
# ADDP cells = assay: MTT cytotoxicity assay, 72 h; assay type: cell-based, human; settings: p53 mt, read-out: IC50 (mean ± SE) after 72 h continuous exposure
# Procedure: as §1, §2, §3
# HCT116 cells [1] = assay: MTT cytotoxicity assay, 72 h; assay type: cell-based, human; settings: HCT116, p53 wt; read-out: IC50 (mean ± SE) after 72 h continuous exposure
# Procedure: as §1, §2, §3
# HL60 cells = assay: MTT cytotoxicity assay, 72 h; assay type: cell-based, human; settings: HL60, p53 nul; read-out: IC50 (mean ± SE) after 72 h continuous exposure
# Procedure: as §1, §2, §3
# HT29 cells [2] = assay: MTT cytotoxicity assay, 72 h; assay type: cell-based, human; settings: HT29, p53 mt; read-out: IC50 (mean ± SE) after 72 h continuous exposure
# Procedure: as §1, §2, §3
# SW480 cells = assay: MTT cytotoxicity assay, 72 h; assay type: cell-based, human; settings: SW480, p53 mt; read-out: IC50 (mean ± SE) after 72 h continuous exposure
# Procedure: as §1, §2, §3
# WiDr cells = assay: MTT cytotoxicity assay, 72 h; assay type: cell-based, human; settings: p53 mt, read-out: IC50 (mean ± SE) after 72 h continuous exposure
# Procedure: as §1, §2, §3
# nine cancer cell lines = assay: MTT cytotoxicity assay, 72 h, ranges over cell line panel; assay type: cell-based
# Procedure: as §1, §2, §3
# L1210 cells = assay: Cell cycle analysis, flow cytometry of propidium iodide stained cells; assay type: cell-based, murine
# Procedure: (§4) The cells are fixed in 70% ethanol and stored at −20° C. until analysis is performed (1-2 weeks). After fixing, the cells are pelleted and incubated in PBS containing propidium iodide ([…]) and RNase A (200 mg/ml) for at least 30 min at room temperature. The samples (2×10^4 events) are analysed using a Becton Dickson FACScan, fluorescence is collected in fluorescence detector 2 (FL2), filter 575/30 nm band pass. Cell cycle distribution is assessed using Cell Quest software (Becton Dickson).
# (§5) The ability of the protein phosphatase inhibitors to abrogate the G1 or G2 checkpoint of the cell cycle may be determined by cell cycle analysis using flow cytometry. Briefly, asynchronous cell cultures are harvested 18 h after 6 Gy irradiation and/or 12 h incubation with the protein phosphatase inhibitor. Depending upon the p53 status of the cell line, radiation treatment alone will induce arrest in either G1 and/or G2 phase of the cell cycle.
# (§6) Data shown in Table 2 and FIG. 4 show the cell cycle response of L1210, HL60, HT29 and HCT116 cells to cantharidin and the new cantharidin analogues MK-2 and MK-4 after 12 h exposure. In summary, cantharidin and MK-2 produced a similar response and induced G2 arrest in all four cell lines tested. […] HL60 and HCT116 cells. […] The magnitude of the cell cycle arrest induced by these drugs directly correlated with their cytotoxicity in the respective cell lines. […] The cytotoxicity of the […]
# HCT116 cells [3] = assay: as above; assay type: cell-based, human
# Procedure: as §4, §5, §6
# HT29 cells [4] = assay: as above; assay type: cell-based, human; settings: 12 h
# Procedure: as §4, §5, §6
smiles,measurement,setting,value
O=C1OC(O)C2C3CCC(O3)C12 (stereo not drawn) [MK-4],IC50,143B cells,450 µM
same,IC50,ADDP cells,275 ± 56 µM
same,IC50,HCT116 cells [1],78 ± 7 µM
same,IC50,HL60 cells,393 ± 103 µM
same,IC50,HT29 cells [2],14 µM
same,IC50,SW480 cells,88 ± 5 µM
same,IC50,WiDr cells,15 ± 3 µM
same,IC50,"nine cancer cell lines; colon lines, read-out: IC50 range in human colon cancer cell lines",14 to 88 µM
same,IC50,"nine cancer cell lines; leukaemia lines, read-out: IC50 range in leukaemia cells",393 to 680 µM
same,IC50,"nine cancer cell lines; ovarian lines, read-out: IC50 range in ovarian cells",275 to 333 µM
same,"Cell Cycle Distribution, G1","L1210 cells; L1210, 50 μM, 12 h",42.0 percentage of total
same,"Cell Cycle Distribution, G2 + M","L1210 cells; L1210, 50 μM, 12 h",32.0 percentage of total
same,"Cell Cycle Distribution, S","L1210 cells; L1210, 50 μM, 12 h",26.9 percentage of total
same,"Cell Cycle Distribution, sub G1","L1210 cells; L1210, 50 μM, 12 h",0.5 percentage of total
same,"Cell Cycle Distribution, G1","L1210 cells; L1210, 100 μM, 12 h",43.2 percentage of total
same,"Cell Cycle Distribution, G2 + M","L1210 cells; L1210, 100 μM, 12 h",32.5 percentage of total
same,"Cell Cycle Distribution, S","L1210 cells; L1210, 100 μM, 12 h",25.4 percentage of total
same,"Cell Cycle Distribution, sub G1","L1210 cells; L1210, 100 μM, 12 h",0.4 percentage of total
same,"Cell Cycle Distribution, G1","L1210 cells; L1210, 250 μM, 12 h",45.7 percentage of total
same,"Cell Cycle Distribution, G2 + M","L1210 cells; L1210, 250 μM, 12 h",30.5 percentage of total
same,"Cell Cycle Distribution, S","L1210 cells; L1210, 250 μM, 12 h",24.6 percentage of total
same,"Cell Cycle Distribution, sub G1","L1210 cells; L1210, 250 μM, 12 h",0.5 percentage of total
same,"Cell Cycle Distribution, G1","L1210 cells; L1210, 500 μM, 12 h",47.5 percentage of total
same,"Cell Cycle Distribution, G2 + M","L1210 cells; L1210, 500 μM, 12 h",33.9 percentage of total
same,"Cell Cycle Distribution, S","L1210 cells; L1210, 500 μM, 12 h",18.6 percentage of total
same,"Cell Cycle Distribution, sub G1","L1210 cells; L1210, 500 μM, 12 h",1.1 percentage of total
same,Cell cycle remark,"L1210 cells; L1210, 500 μM, 12 h",Slight Δ
same,Cell cycle response,"L1210 cells; L1210, 12 h exposure",G2 arrest
same,"Cell Cycle Distribution, G1","HCT116 cells [3]; HCT116, 50 μM, 12 h",43.9 percentage of total
same,"Cell Cycle Distribution, G2 + M","HCT116 cells [3]; HCT116, 50 μM, 12 h",40.7 percentage of total
same,"Cell Cycle Distribution, S","HCT116 cells [3]; HCT116, 50 μM, 12 h",11.4 percentage of total
same,"Cell Cycle Distribution, sub G1","HCT116 cells [3]; HCT116, 50 μM, 12 h",4.5 percentage of total
same,"Cell Cycle Distribution, G1","HCT116 cells [3]; HCT116, 100 μM, 12 h",41.4 percentage of total
same,"Cell Cycle Distribution, G2 + M","HCT116 cells [3]; HCT116, 100 μM, 12 h",44.1 percentage of total
same,"Cell Cycle Distribution, S","HCT116 cells [3]; HCT116, 100 μM, 12 h",13.6 percentage of total
same,"Cell Cycle Distribution, sub G1","HCT116 cells [3]; HCT116, 100 μM, 12 h",2.0 percentage of total
same,"Cell Cycle Distribution, G1","HCT116 cells [3]; HCT116, 250 μM, 12 h",36.2 percentage of total
same,"Cell Cycle Distribution, G2 + M","HCT116 cells [3]; HCT116, 250 μM, 12 h",46.9 percentage of total
same,"Cell Cycle Distribution, S","HCT116 cells [3]; HCT116, 250 μM, 12 h",14.1 percentage of total
same,"Cell Cycle Distribution, sub G1","HCT116 cells [3]; HCT116, 250 μM, 12 h",3.9 percentage of total
same,"Cell Cycle Distribution, G1","HCT116 cells [3]; HCT116, 500 μM, 12 h",29.0 percentage of total
same,"Cell Cycle Distribution, G2 + M","HCT116 cells [3]; HCT116, 500 μM, 12 h",46.5 percentage of total
same,"Cell Cycle Distribution, S","HCT116 cells [3]; HCT116, 500 μM, 12 h",15.7 percentage of total
same,"Cell Cycle Distribution, sub G1","HCT116 cells [3]; HCT116, 500 μM, 12 h",9.6 percentage of total
same,Cell cycle remark,"HCT116 cells [3]; HCT116, 500 μM, 12 h",G2 arrest
same,Cell cycle response,"HCT116 cells [3]; HCT116, 12 h exposure",G2 arrest
same,"Cell Cycle Distribution, G1","HT29 cells [4]; HT29, 50 μM",51.4 percentage of total
same,"Cell Cycle Distribution, G2 + M","HT29 cells [4]; HT29, 50 μM",31.6 percentage of total
same,"Cell Cycle Distribution, S","HT29 cells [4]; HT29, 50 μM",12.3 percentage of total
same,"Cell Cycle Distribution, sub G1","HT29 cells [4]; HT29, 50 μM",4.7 percentage of total
same,"Cell Cycle Distribution, G1","HT29 cells [4]; HT29, 100 μM",52.3 percentage of total
same,"Cell Cycle Distribution, G2 + M","HT29 cells [4]; HT29, 100 μM",29.4 percentage of total
same,"Cell Cycle Distribution, S","HT29 cells [4]; HT29, 100 μM",12.5 percentage of total
same,"Cell Cycle Distribution, sub G1","HT29 cells [4]; HT29, 100 μM",6.0 percentage of total
same,"Cell Cycle Distribution, G1","HT29 cells [4]; HT29, 250 μM",53.2 percentage of total
same,"Cell Cycle Distribution, G2 + M","HT29 cells [4]; HT29, 250 μM",27.6 percentage of total
same,"Cell Cycle Distribution, S","HT29 cells [4]; HT29, 250 μM",11.9 percentage of total
same,"Cell Cycle Distribution, sub G1","HT29 cells [4]; HT29, 250 μM",7.0 percentage of total
same,"Cell Cycle Distribution, G1","HT29 cells [4]; HT29, 500 μM",53.7 percentage of total
same,"Cell Cycle Distribution, G2 + M","HT29 cells [4]; HT29, 500 μM",29.1 percentage of total
same,"Cell Cycle Distribution, S","HT29 cells [4]; HT29, 500 μM",14.1 percentage of total
same,"Cell Cycle Distribution, sub G1","HT29 cells [4]; HT29, 500 μM",3.4 percentage of total
same,Cell cycle remark,"HT29 cells [4]; HT29, 500 μM",G1 arrest
